Results on 19 compounds are retold here after article PMC12040169 (PLOS Biology, 2025).

For series [1], the system named is T1, CTL2-GFP (C. trachomatis L2/434/Bu, GFP-expressing).
T1 construct: L2/434/Bu, GFP-expressing
The series is described as follows: microbe, parasite or virus in culture. Set-up: Intracellular C. trachomatis growth in HeLa cells, bulk GFP fluorescence relative to DMSO. The conditions noted are these: Chlamydia trachomatis, HeLa, 28.5 h; bulk GFP, mean of 2; read-out: % of control remaining. The protocol:
MICs were calculated as described above.

Series [2] is described as follows: in vitro. Further details: Viability of infected HeLa host cells, resazurin conversion, bulk resorufin fluorescence relative to DMSO. The conditions noted are these: human, hela cells; bulk resorufin, mean of 2.
Series [3] deals with T2, C. trachomatis L2/434/Bu expressing GFP (CTL2-GFP).
T2 construct: L2/434/Bu GFP intracellular growth in HeLa cells
The series is described as follows: microbe, parasite or virus in culture. Set-up: C. trachomatis total inclusion area by high-content imaging, normalised to DMSO. The conditions noted are these: Chlamydia trachomatis, HeLa, 28.5 h; total inclusion area; read-out: % of control remaining. An excerpt:
We screened a library of 36,785 small molecules displaying drug-like properties and covering a wide chemical space (Fig 1A and S2A Data). In this process, we also complemented the assay described above with an imaging-based readout (Fig 1B). After measurements of bulk GFP and resorufin fluorescence, cells were fixed, stained with the DNA dye Hoechst, and imaged at a high-content imaging platform to detect chlamydial inclusions (GFP) and host cell nuclei (Hoechst). The total area and number of inclusions in individual wells and the number of nuclei then served as additional proxies for chlamydial growth and host cell viability. […] MICs were calculated as described above.

With `O=C(c1cccs1)N1C[C@H](c2ccc(F)cc2)[C@H]2CN(Cc3ccccc3)CC[C@H]21` [CBK285544], in series [1], the activity at 1 µM was determined as 93.9%, the activity at 5 µM came out at 109% and the activity at 10 µM amounted to 115%. In series [2], the viability (in general, a read-out of living cells in per cent, often relative to untreated cells) at 28.5 h, 1 µM turned out to be 93.4%; the viability at 28.5 h, 5 µM was 91.7%; the viability at 28.5 h, 10 µM amounted to 95.5%. In series [3], the activity at 1 µM came out at 74.8%, the activity at 5 µM came out at 78.2% and the activity at 10 µM stood at 59.8%.

As for `Oc1c(CN2CCN(c3ccc(F)cc3)CC2)cc(Br)c2cccnc12` [CBK268051], in series [1], the activity at 1 µM came out at 113%, the activity at 5 µM was found to be 46.4% and the activity at 10 µM was 37.8%. Further, in series [2], the viability at 28.5 h, 1 µM stood at 96.2%; the viability at 28.5 h, 5 µM was determined as 97.9%; the viability at 28.5 h, 10 µM was determined as 92.4%. Moreover, in series [3], the activity at 1 µM was 119%, the activity at 5 µM is 33% and the activity at 10 µM worked out at 37.5%.

Turning to `CC(C)(C)c1cc(C(=O)Nc2ccncc2)n(Cc2ccc(Cl)cc2Cl)n1` [CBK107284], in series [1], the activity at 1 µM was 116%, the activity at 5 µM stood at 74.6% and the activity at 10 µM came out at 24.2%. For the same compound, in series [2], the viability at 28.5 h, 1 µM was 94.9%; the viability at 28.5 h, 5 µM amounted to 94%; the viability at 28.5 h, 10 µM is 97.3%. Also, in series [3], the activity at 1 µM came to 117%, the activity at 5 µM was 57.8% and the activity at 10 µM was 39.7%.

Turning to `O=C(NCc1cccnc1)/C(=C/c1ccc(-c2cccc(Cl)c2)o1)S(=O)(=O)c1ccccc1` [CBK264508], in series [1], the activity at 1 µM stood at 101%, the activity at 5 µM was 45% and the activity at 10 µM is 8.14%. For the same compound, in series [2], the viability at 28.5 h, 1 µM was determined as 107%; the viability at 28.5 h, 5 µM was determined as 100%; the viability at 28.5 h, 10 µM was 97.8%. Also, in series [3], the activity at 1 µM was 78.5%, the activity at 5 µM stood at 44% and the activity at 10 µM was determined as 10.3%.

`CCc1cc(-c2n[nH]cc2-c2nc(C)cs2)c(O)cc1OC` [CBK287934]: in series [1], the activity at 1 µM came to 133%, the activity at 5 µM worked out at 62.2% and the activity at 10 µM came out at 7.47%. Further, in series [2], the viability at 28.5 h, 1 µM stood at 101%; the viability at 28.5 h, 5 µM is 96.8%; the viability at 28.5 h, 10 µM was 94.8%. Further, in series [3], the activity at 1 µM amounted to 87.9%, the activity at 5 µM turned out to be 31.5% and the activity at 10 µM came to 6.53%.

As for `O=C(NCCCn1ccnc1)N1CCN(Cc2ccc(Cl)cc2)CC1` [CBK305894], in series [1], the activity at 1 µM turned out to be 143%, the activity at 5 µM was 148% and the activity at 10 µM was 147%. For the same compound, in series [2], the viability at 28.5 h, 1 µM worked out at 90.1%; the viability at 28.5 h, 5 µM was 93.5%; the viability at 28.5 h, 10 µM came out at 89.5%. Further, in series [3], the activity at 1 µM worked out at 118%, the activity at 5 µM stood at 87% and the activity at 10 µM is 78.9%.

On to `O=S(=O)(Nc1ccc(C(F)(F)F)cc1Cl)c1cc(Br)c(Cl)s1` [CBK057196], for which, in series [1], the activity at 1 µM was 142%, the activity at 5 µM amounted to 108% and the activity at 10 µM was determined as 69.6%. Further, in series [2], the viability at 28.5 h, 1 µM is 90.4%; the viability at 28.5 h, 5 µM was 93.1%; the viability at 28.5 h, 10 µM worked out at 88.2%. Further, in series [3], the activity at 1 µM is 114%, the activity at 5 µM amounted to 75.1% and the activity at 10 µM is 57.9%.

As to `Cc1ccccc1Nc1nc(N)nc(CN2CCCC(C(F)(F)F)C2)n1` (stereo not drawn) [CBK305073], in series [1], the activity at 1 µM was 153%, the activity at 5 µM is 120% and the activity at 10 µM amounted to 139%. For the same compound, in series [2], the viability at 28.5 h, 1 µM turned out to be 96.6%; the viability at 28.5 h, 5 µM was 101%; the viability at 28.5 h, 10 µM worked out at 97.7%. Further, in series [3], the activity at 1 µM stood at 144%, the activity at 5 µM worked out at 60.7% and the activity at 10 µM came to 97.8%.

As for `CC(=O)NC[C@H]1CN(c2ccc(C#N)c(C)c2)C(=O)O1` [CBK010393], in series [1], the activity at 1 µM is 120%, the activity at 5 µM came to 98% and the activity at 10 µM was determined as 55.2%. In series [2], the viability at 28.5 h, 1 µM turned out to be 89.7%; the viability at 28.5 h, 5 µM was determined as 90.3%; the viability at 28.5 h, 10 µM stood at 89.8%. Besides, in series [3], the activity at 1 µM is 102%, the activity at 5 µM is 94.2% and the activity at 10 µM was found to be 42.5%.

On to `O=S(=O)(Nc1ncccn1)c1ccc(NC(=S)Nc2ccc3c(c2)OCO3)cc1` [CBK267046], for which, in series [1], the activity at 1 µM turned out to be 54.3%, the activity at 5 µM was 10.7% and the activity at 10 µM is 12.9%. Also, in series [2], the viability at 28.5 h, 1 µM was found to be 114%; the viability at 28.5 h, 5 µM is 121%; the viability at 28.5 h, 10 µM stood at 119%. In addition, in series [3], the activity at 1 µM worked out at 88.8%, the activity at 5 µM came to 21.2% and the activity at 10 µM was 18.3%.

Take `CC(C)(C)c1ccc(N(C2CCNCC2)S(=O)(=O)c2cccc(C(F)(F)F)c2)cc1` [CBK165056T]: in series [1], the activity at 1 µM turned out to be 103%, the activity at 5 µM was 77.9% and the activity at 10 µM amounted to 24.3%. Besides, in series [2], the viability at 28.5 h, 1 µM amounted to 99.8%; the viability at 28.5 h, 5 µM amounted to 107%; the viability at 28.5 h, 10 µM was 45.6%. Besides, in series [3], the activity at 1 µM worked out at 78%, the activity at 5 µM came out at 50.5% and the activity at 10 µM turned out to be 1%.

Consider `CC1=C(C)C(=NNC(N)=S)C(C)=C(C)C1=NNC(N)=S` [CBK261262], for which, in series [1], the activity at 1 µM is 116%, the activity at 5 µM was found to be 39.1% and the activity at 10 µM was 12.7%. For the same compound, in series [2], the viability at 28.5 h, 1 µM was found to be 90.9%; the viability at 28.5 h, 5 µM is 90.8%; the viability at 28.5 h, 10 µM was found to be 90.6%. In series [3], the activity at 1 µM was found to be 96.7%, the activity at 5 µM worked out at 31.5% and the activity at 10 µM worked out at 17.1%.

Consider `Cc1noc(NS(=O)(=O)c2ccc(NC(=O)COc3ccc(Cl)cc3Cl)cc2)c1C` [CBK262142], for which, in series [1], the activity at 1 µM came out at 103%, the activity at 5 µM was found to be 26.5% and the activity at 10 µM came out at 14.3%. Moreover, in series [2], the viability at 28.5 h, 1 µM was 95.1%; the viability at 28.5 h, 5 µM turned out to be 97.3%; the viability at 28.5 h, 10 µM was 100%. In addition, in series [3], the activity at 1 µM was 102%, the activity at 5 µM turned out to be 49.8% and the activity at 10 µM turned out to be 24.6%.

On to `O=C(NCCCn1ccnc1)c1cc(-c2cccc(Br)c2)nc2ccccc12` [CBK265476], for which, in series [1], the activity at 1 µM amounted to 88.9%, the activity at 5 µM was 13% and the activity at 10 µM turned out to be 0%. Besides, in series [2], the viability at 28.5 h, 1 µM came to 108%; the viability at 28.5 h, 5 µM came out at 115%; the viability at 28.5 h, 10 µM was found to be 116%. Besides, in series [3], the activity at 1 µM amounted to 76.4%, the activity at 5 µM stood at 28.5% and the activity at 10 µM was 3.75%.

For the compound `Cc1noc(-c2ccc3c(c2O)OCCO3)c1-c1ccc(Cl)cc1` [CBK018086], in series [1], the activity at 1 µM was found to be 62.5%, the activity at 5 µM came to 3.44% and the activity at 10 µM is 2.13%. In series [2], the viability at 28.5 h, 1 µM was found to be 96.5%; the viability at 28.5 h, 5 µM came out at 97.6%; the viability at 28.5 h, 10 µM turned out to be 99%. Also, in series [3], the activity at 1 µM is 73.6%, the activity at 5 µM came to 0.782% and the activity at 10 µM came to 0.691%.

For `CC(NC(C)(C)C)C(O)COc1ccc(Cl)c2c1C1CCC2CC1` (stereo not drawn) [CBK017752C], in series [1], the activity at 1 µM amounted to 125%, the activity at 5 µM was 126% and the activity at 10 µM was found to be 66.4%. Besides, in series [2], the viability at 28.5 h, 1 µM turned out to be 90.2%; the viability at 28.5 h, 5 µM was 95%; the viability at 28.5 h, 10 µM worked out at 92.2%. Also, in series [3], the activity at 1 µM was 68%, the activity at 5 µM was determined as 78.7% and the activity at 10 µM is 17.5%.

As to `C1=C(CCNCCc2ccccc2)c2ccccc2C12CCCC2` [CBK024723], in series [1], the activity at 1 µM worked out at 137%, the activity at 5 µM turned out to be 49.2% and the activity at 10 µM turned out to be 3.86%. In series [2], the viability at 28.5 h, 1 µM was 96.5%; the viability at 28.5 h, 5 µM amounted to 89.8%; the viability at 28.5 h, 10 µM was 97.2%. Besides, in series [3], the activity at 1 µM came out at 112%, the activity at 5 µM was determined as 42.8% and the activity at 10 µM came to 0.759%.

Regarding `CC(C)(C)CC(C)(C)NC(=S)Nc1ccc2nc(-c3ccccn3)c(-c3ccccn3)nc2c1` [CBK265118], in series [1], the activity at 1 µM was 95.9%, the activity at 5 µM was 66.8% and the activity at 10 µM is 47.2%. Further, in series [2], the viability at 28.5 h, 1 µM worked out at 110%; the viability at 28.5 h, 5 µM was determined as 106%; the viability at 28.5 h, 10 µM was 98%. Moreover, in series [3], the activity at 1 µM worked out at 82.1%, the activity at 5 µM came to 31.9% and the activity at 10 µM is 16.8%.

For `O=C(O)c1cn(C2CC2)c2cc(N3CCNCC3)c(F)cc2c1=O` [CBK011645], in series [1], the activity at 1 µM is 12.8%, the activity at 5 µM was determined as 1.31% and the activity at 10 µM worked out at 0%. Further, in series [3], the activity at 1 µM turned out to be 11.1%, the activity at 5 µM stood at 0.824% and the activity at 10 µM came out at 0.167%.
